Source: patent US10155985B2, “Evaluation of eosinophilic esophagitis” (CHILDREN'S HOSPITAL MEDICAL CENTER, priority 2004, dated 2018)

B1: SEQ_ID_#58 (nucleic acid, listed as Homo sapiens)
DNA: ATGAAGGCCAACTACAGCGCAGAGGAGCGCTTTCTCCTGCTGGGTTTCTCCGACTGGCCTTCCCTGCAGCCGGTCCTCTTCGCCCTTGTCCTCCTGTGCTACCTCCTGACCTTGACGGGCAACTCGGCGCTGGTGCTGCTGGCGGTGCGCGACCCGCGCCTGCACACGCCCATGTACTACTTCCTCTGCCACCTGGCCTTGGTAGACGCGGGCTTCACTACTAGCGTGGTGCCGCCGCTGCTGGCCAACCTGCGCGGACCAGCGCTCTGGCTGCCGCGCAGCCACTGCACGGCCCAGCTGTGCGCATCGCTGGCTCTGGGTTCCGCCGAATGCGTCCTCCTGGCGGTGATGGCTCTGGACCGCGCGGCCGCAGTGTGCCGCCCGCTGCGCTATGCGGGGCTCGTCTCCCCGCGCCTATGTCGCACGCTGGCCAGCGCCTCCTGGCTAAGTGGCCTCACCAACTCGGTTGCGCAAACCGCGCTCCTGGCTGAGCGGCCGCTGTGCGCGCCCCGCCTGCTGGACCACTTCATCTGTGAGCTGCCGGCGTTGCTCAAGCTGGCCTGCGGAGGCGACGGAGACACTACCGAGAACCAGATGTTCGCCGCCCGCGTGGTCATCCTGCTGCTGCCGTTTGCCGTCATCCTGGCCTCCTACGGTGCCGTGGCCCGAGCTGTCTGTTGCATGCGGTTCAGCGGAGGCCGGAGGAGGGCGGTGGGCACGTGTGGGTCCCACCTGACAGCCGTCTGCCTGTTCTACGGCTCGGCCATCTACACCTACCTGCAGCCCGCGCAGCGCTACAACCAGGCACGGGGCAAGTTCGTATCGCTCTTCTACACCGTGGTCACACCTGCTCTCAACCCGCTCATCTACACCCTCAGGAATAAGAAAGTGAAGGGGGCAGCGAGGAGGCTGCTGCGGAGTCTGGGGAGAGGCCAGGCTGGGCAGTGA
B2: SEQ_ID_#65 (nucleic acid, listed as Homo sapiens)
DNA: B1 DNA
B3: SEQ_ID_#72 (nucleic acid, listed as Homo sapiens)
DNA: AGCTATTCATTCATTTAATGAATATTTTTAATATCGATGTACATGCCAGATAATGAAGAGGAGGGGTGTTACAGAAGTATACAACAAATTGTATCATTCAGCAATCCTTTATCCTAGTGGGGAAGATGACTATACAGATAATTACAACTTAAGGCCATTTTTTGGATAAGAAACATAAAAGTGGTACAAACAAAAGTTCAAGGAGGCAAAGACCACTTCTTATTCTGGTTATATGGATAGCCTTCATGGAGAAGGCTTCATGACAGTTGGGTTGGGTCTTGAAGATGTCTACAGGTAGAGCCTCAGAAAAAGGAATATGAAACATAGGGAACAGTAGGAGGAGGGCAGCTTTAGTGACTGGCTCGGTTATACTAGAGCATTGGGATTGTAGAGGAGAATCATGATTGATTAAGGCTATATAGGGCAGTTAGGGCCAGATACTGGGGGAATTTGAATATCAGACTGTTATTTGATGAACAGTGGGAGCAGCTGAAGGTTTTTTTTTTTTTTTTAAAAAAAACAACCTTATTAAGGTAGTG
B4: S100P (nucleic acid, listed as Homo sapiens)
DNA: TGAGGCTGCCTTATAAAGCACCAAGAGGCTGCCAGTGGGACATTTTCTCGGCCCTGCCAGCCCCCAGGAGGAAGGTGGGTCTGAATCTAGCACCATGACGGAACTAGAGACAGCCATGGGCATGATCATAGACGTCTTTTCCCGATATTCGGGCAGCGAGGGCAGCACGCAGACCCTGACCAAGGGGGAGCTCAAGGTGCTGATGGAGAAGGAGCTACCAGGCTTCCTGCAGAGTGGAAAAGACAAGGATGCCGTGGATAAATTGCTCAAGGACCTGGACGCCAATGGAGATGCCCAGGTGGACTTCAGTGAGTTCATCGTGTTCGTGGCTGCAATCACGTCTGCCTGTCACAAGTACTTTGAGAAGGCAGGACTCAAATGATGCCCTGGAGATGTCACAGATTCCTGGCAGAGCCATGGTCCCAGGCTTCCCAAAAGTGTTTGTTGGCAATTATTCCCCTAGGCTGAGCCTGCTCATGTACCTCTGATTAATAAATGCTTATGAAATGA
B5: SEQ_ID_#783 (nucleic acid, listed as Homo sapiens)
DNA: TATCACGCACAAATTGCAATTACTTCACACTCACGATAACCCATTAATCTGTGAAGGATTAATCTGTTCATGAAGGCAGGGCCCTCATGATGGAATCACATCTTAAAGCCCCTACGTCTGAGTACTGTTACATTGGGGATTTAGTTTTAATATGATTTTCAGAGCAGAAAAACATTCAAACCATAGCAATATGTATTGAATATCTAGATCATTTCCAAATAAGATATTAATATGATACTGAAACATTTATTGCTGAACATAAATTTAGAACTTACTTTGCCTACCTATTACAGAAGAACAAAAGATATTTGGGCCTATTAAACCTTTCCTCTGCCATTTCCTGTCCTGTGTCATAGGACTAGGAATCGTGTTTCTAGAAGGTATGAAATCGTGTGCTTGCAAACTTGGAAGAAAACAGTTCATGACTGCATACCTTCTAGTTCTCTAGTGTTCACTGGAAATTAAAGACACTAAAAGTTAACAATTCTTATTAATTAATCATATTAATGTAATTGGAATTTCTAGAAATATTAGGGGAAGCAACTTTATACGCAAAGCATAACAGAAAAATAAGGTGTATTTTTTCTTTGAAACCTATGAAATATACTGGCCAGGCACGGTGGCTCATGCTTGTAATCCCAGCACTTTGGGAAGCTGAAGCGGTGGATCACCTGAGCTCAGGAGTCCGAGACCAGCTGGCCACATGTTGAACCATGTCTCTACTAAAATACAAAATTAGCAGTCATGTGCGGTGCTGTACCCCAGTACTCGGAGCTGGGGGGAATCGTGACCGGGTGGGTGCTGACCAAACCTGGCCCAGCGGGAAAGAGACTTTAAAACAATGGACCAAACTGCACAAGCTCTGCCACACTTGTCGAACCCGTGGACGCACAAGAAAAGGGCATCTGGACCTGGAATAACGAAACGACACATCT
B6: SEQ_ID_#787 (nucleic acid, listed as Homo sapiens)
DNA: TTTGGTACAGAATGAAACCGTTCTCTTTGAAGAACTGCATGTTTCCCCCAGTCATTTTTGTCCTGGGGGAGTCAAGTGTTTTTACGGACCCTTGAAGCTTGAGGACACTCTGGCATCACCCATTGTTGGGGTGACTTTCTGGTGATTATCAGTGAGCAAACTTCAAGGCCAGCTCCGATTAGGAAAATCTGCCAAGTGTGAGTTTCCTTGGAGCTAGGACTGGGCAGAGACCCCTGGTCCTTGGTCCGTAGGGAAGCTGGGGGATTTGGGGGGTAAGTAATGAGATCATGTCTGCAGAGGCCCCCAGCCTCTTGGAAGAAGATTCCGCTGTAATTTCTTGGAAAAAGCCAACTCCTTCCAGCCCTTTCTGCTCACACCATCTCAGTTTTCCTGGCTGG

The molecules below were run on EE transcriptome (assay: Genome-wide microarray transcript profiling of esophageal biopsies, EE patients vs normal individuals (EE transcriptome)). Conditions: transcript level in esophageal biopsies of EE patients (n=76) compared to normal individuals (n=13); Affymetrix Human Genome U133 plus 2; p<0.01.
Procedure: Esophageal tissue obtained from patients previously diagnosed with EE was analyzed. Diagnosis was based on analysis of excised tissue from endoscopic biopsy. Tissues from patients with EE, as well as patients not having EE (controls) were subjected to genome-wide microarray transcript profiling (Affymetrix GeneChip). All work was performed at the Core facility at Children's Hospital Medical Center (Cincinnati Ohio).
Briefly, RNA quality was first assessed using the Agilent bioanaiyzer (Agilent Technologies, Palo Alto Calif.). Only mRNA having a ratio of 28S/18S between 1.3 and 2 were subsequently used. RNA was converted to cDNA with Superscript choice for cDNA synthesis (Invitrogen, Carlsbad Calif.) and subsequently converted to biotinylated cRNA with Enzo High Yield RNA Transcript labeling kit (Enzo Diagnostics, Farmingdale N.Y.). After hybridization to the GeneChip (Affymetrix, Santa Clara Calif.), the chips were automatically washed and stained with streptavidin-phycoerythrin using a fluidics system. The chips were scanned with a Hewlett Packard GeneArray Scanner. Over 30,000 unique genes were screened.
Levels of gene transcripts were determined from data image files, using algorithms in the Microarray Analysis Suite software (Affymetrix). Levels from chip to chip were compared by global scaling. Each gene was typically represented by a probe set of 16 to 20 probe pairs. Each probe pair consisted of a perfect match oligonucleotide and a mismatch oligonucleotide that contained a one base mismatch at a central position. Two measures of gene expression were used, absolute call and average difference. Absolute call is a qualitative measure in which each gene is assigned a call of present, marginal or absent, based on the hybridization of the RNA to the probe set. Average difference is a quantitative measure of the level of gene expression, calculated by taking the difference between […] of every probe pair and averaging the differences over the entire probe set. Data were normalized and an EE transcriptome gene list was created with results having p<0.01 (Welch t-test with or without false rate discovery) and ≥1.5-fold change.
For evaluation of EE using clinical and/or physical assessment, biopsy tissues (obtained from the distal esophagus during routine endoscopy) were submerged in formalin for routine pathological analysis with hematoxylin and eosin staining. Diagnosis was established based on the maximum eosinophil count per high power field (hpf) and basal layer expansion according to method known in the art (e.g., established criteria in Rothenberg et al., Pathogenesis and clinical features of eosinophilic esophagitis. J Allergy Clin Immunol 108 (2001) 891; Attwood et al., Esophageal eosinophilia with dysphagia. A distinct clinicopathologic syndrome. Dig Dis Sci 38 (1993)109; Fox et al., Eosinophilic esophagitis: its not just kid's stuff. Gastrointest Endosc 56 (2002) 26, each of which is expressly incorporated by reference herein in its entirety. Normal individuals (NL), n=13, served as a control and were defined as having 0 eosinophils/hpf and no basal layer expansion. Individuals with EE (n=76) were defined as having >24 eosinophils/hpf and extensive basal layer hyperplasia (expansion to about >⅓ of epithelium).
The data were analyzed by cluster analysis and ordered (standard correlation (A) and distance (B)) using Genespring software. […] Each column represented a separate individual and each line a gene. RNA from each patient was subjected to chip analysis using Affymetrix Human Genome U133 GeneChip plus 2.

In order of rising “Fold Change” value:
1. SDPR  2.293
2. SEPX1  2.611
3. ADAM28  2.613
4. SCUBE1  2.689
5. ACSL5  2.745
6. SLC15A1  2.792
7. SH2D1B  3.098
8. SH3RF2  3.122
9. SGK  3.139
10. SCIN  3.17
11. SIGLEC6  3.199
12. SECTM1  3.282
13. SE57-1  4.055
14. SFRP1  4.098
15. SERPINB4  4.328
16. B3  4.374
17. B2  4.547
18. SIDT1  4.822
19. B1  4.822
20. SCUBE2  5.502
21. SAMSN1  7.119
22. SEC6L1  8.878

Same assay, conditions: transcript level in esophageal biopsies of EE patients compared to normal individuals (NL); Affymetrix Human Genome U133 plus 2; p<0.01; >1 up-regulated, <1 down-regulated

In order of rising “Fold Change” value:
1. ACADL  0.588
2. ACOX2  0.592
3. SC5DL  0.6
4. AADAT  0.608
5. ABHD6  0.609
6. ABCC1  0.622
7. SH3BP5  0.622
8. SGPL1  0.63
9. ADAMTS17  0.631
10. SCEL  0.631
11. 13CDNA73  0.632
12. SAMD9  0.634
13. SEC24C  0.647
14. SF3B3  0.655
15. SFRS5  0.666
16. SCYL2  1.507
17. ADAR  1.509
18. B4  1.52
19. B6  1.528
20. B5  1.53
